Source: paper PMC8307904, “Synthesis and Structure of Novel Copper(II) Complexes with N,O- or N,N-Donors as Radical Scavengers and a Functional Model of the Active Sites in Metalloenzymes” (International Journal of Molecular Sciences, 2021)
Entries after “also recorded” stand apart in the source; their conditions may differ. Read-outs that look alike come from different tables or passages of the source. Each block holds one compound with its values, some of them ahead of it.

How the values were obtained:
[1] = ABTS radical assay (free radical scavenging); assay type: biochemical
Experimental: We investigated the free radical scavenging ability of the selected ligands and their newly synthesised complexes using the ABTS assay. 2,2′-Azinobis-[3-ethylbenzthiazoline-6-sulfonic acid] (ABTS) was dissolved in Milli-Q water to yield a 7 mM solution. The ABTS radical cation solution was prepared by allowing the ABTS solution to react with the K2S2O8 solution (final concentration 2.45 mM) for 16 h in the dark at room temperature. It has been reported that the extinction coefficient of ABTS^•+ radicals at 734 nm is 1.5 × 10^4 mol^−1 L cm^−1. Using the Beer–Lambert law, ABTS^•+ radical concentrations were calculated. To determine the antioxidant capacity of the complex solutions and standard antioxidant (Trolox), the ABTS solution was diluted with 5 mM PBS (pH 7.4) to an absorbance at 732 nm of 0.7 ± 0.1 After the addition of different volumes (0–1 mL) of each compound solution to 2.5 mL of diluted ABTS^•+, the absorbance was measured at 30 min. All samples were analysed in triplicate. The ABTS^•+radical scavenging activity (AA%) was calculated using the following equation: AA% = ((Acontrol − Asample)/(Acontrol)) × 100, where Acontrol is the absorbance of the blank control (containing ABTS^•+ solution without test sample) and Asample is the absorbance of the test sample. The antioxidant activity was described as the 50% inhibition concentration (IC50). The IC50 values were calculated from regression lines where x is the concentration of complex or ligand in mM and y is the percent inhibition of the analysed compound.

[2] = stability in buffer solution (PBS) by UV-Vis; assay type: physicochemical; conditions: room temperature, 0 min and 12 h, UV-Vis spectra
Experimental: (§1) Among the synthetic compounds used for modelling biological systems, mimetics that are soluble in solvents of neutral pH are particularly favoured because they can penetrate cell membranes and, thus, be absorbed by the organism. […] Additionally, we checked the stability of selected complexes in buffer solution (PBS) at two different time points (0 min and 12 h).

solubility = assay type: physicochemical
Experimental: as §1

[3] = test system: HT29 (colon adenocarcinoma); test: in vitro cytotoxicity / proliferation, HT29; assay type: cell-based, human; conditions: read-out: IC50 (inhibits proliferation of 50% of cells)
From the text: (§2) For IC50 determination, the human cancer lines A549 (non-small cell lung carcinoma), HT29 (colon adenocarcinoma) and MCF-7 (breast adenocarcinoma), and a healthy mouse fibroblast cell line (BALB/3T3), were used. All tested cell lines were obtained from the American Type Culture Collection (Rockville, MD, USA) and maintained at the Cell Culture Collection of the Hirszfeld Institute of Immunology and Experimental Therapy (Wrocław, Poland). The details of the experimental conditions were described in [69]. […] IC50 values were calculated separately for each experiment, which was repeated 3–5 times.

[4] = test system: healthy mouse fibroblast cell line (BALB/3T3); test: in vitro cytotoxicity / proliferation, BALB/3T3; assay type: cell-based; conditions: for IC50: BALB/3T3 normal cell line, read-out: IC50 (inhibits proliferation of 50% of cells)
From the text: as §2

[5] = test system: total antioxidant status (TAS); test: TAS level (RANDOX test) in patients' blood samples after addition of the mimetic; assay type: biochemical, human; conditions: post-chemotherapy group, 25 µg/mL, versus samples without complex
From the text: (§3) The present study was based on 20 women of the Regional Hospital in Kielce who had previously undergone therapy for diagnosed breast tumour, and 10 healthy volunteers (samples were anonymised). Patients were divided into subgroups those after chemotherapy (n = 10) and after radiotherapy (n = 10). The protocol and procedures were undertaken according to the Helsinki Declaration and were approved by the Bioethics Committee of the Świętokrzyska Medical Chamber in Kielce (permission number 1/2015-B). Before obtaining blood, patients and healthy subjects signed informed consent and agreed to the use of the samples for research purposes. Approximately 5 mL of blood was taken from the patients by venous puncture. Blood samples were collected in 3 mL tubes containing EDTA as an anticoagulant, and in tubes with no anticoagulant. Tubes were centrifuged at 3500 rpm for 15 min to obtain plasma and serum, respectively. Erythrocytes were washed with 0.9% sodium chloride. […]
(§4) The activities of TAS, SOD, CAT and GPx were measured using commercial kits, according to the manufacturers’ instructions. […]
The TAS level was evaluated by RANDOX test (Randox Laboratories, United Kingdom) following the method described by Miller et al.. […] Suppression of the blue-green colour of radicals (measured at 600 nm) is proportional to antioxidants’ concentration (TAS). The results were expressed as mmol/L serum.

CAT = CAT activity (Catalase assay kit) in patients' blood samples after addition of the mimetic; assay type: biochemical, human; conditions: post-chemotherapy group, 25 µg/mL, versus samples without complex
From the text: as §3, with “respectively.” for “respectively. Erythrocytes were washed with 0.9% sodium chloride.”
as §4
The CAT activity measurement was measured with the Catalase assay kit (Calbiochem, Merck, Darmstadt, Germany) based on the reaction of the enzyme with methanol in the presence of an optimal concentration of H2O2 [72]. The formaldehyde produced is measured colourimetrically (at 540 nm) with 4-amino-3-hydrazino- 5-mercapto-1,2,4-triazole (Purpald) as the chromogen.

[6] = test system: MCF-7 (breast adenocarcinoma); test: in vitro cytotoxicity / proliferation, MCF-7; assay type: cell-based, human; conditions: read-out: IC50 (inhibits proliferation of 50% of cells)
From the text: as §2

[7] = test system: A549 (non-small cell lung carcinoma); test: in vitro cytotoxicity / proliferation, A549; assay type: cell-based, human; conditions: read-out: IC50 (inhibits proliferation of 50% of cells)
From the text: as §2

SOD = SOD activity (RANSOD test) in patients' blood samples after addition of the mimetic; assay type: biochemical, human
From the text: as §3, §4
The SOD activity was measured with the RANSOD test (Randox Laboratories, United Kingdom) based on the method of McCord and Fridovich. […] The superoxide dismutase activity is measured by the degree of inhibition of this reaction. […] The activity of SOD was measured spectrophotometrically at 505 nm and expressed as U/mL.

[8] = set-up: method as in PMID 24406400; conditions: aqueous solution; cited from earlier work
[9] = ABTS^•+ diluted with 5 mM PBS pH 7.4, absorbance at 30 min, read-out: IC50 (ABTS radical scavenging activity)

Compound: OCCc1ccccn1.OCCc1ccccn1.[Cu+2].[Cu+2].[O-]CCc1ccccn1.[O-]CCc1ccccn1.[O-][Cl+3]([O-])([O-])[O-].[O-][Cl+3]([O-])([O-])[O-] [complex 3, [Cu2(2-(HOCH2CH2)py)2(2-(OCH2CH2)py)2](ClO4)2]
IC50 [1, 9]: 620 ± 50 µM | stability in buffer solution (PBS) [2]: confirmed the stability | solubility in water (solubility): soluble in water

IC50 [1, 9]: 3790 ± 230 µM
Compound: OCc1ccccn1 [2-(HOCH2)py, 2-(hydroxymethyl)pyridine, reference compound]

Compound: N.N.[Cl][Pt][Cl] [cisplatin, reference compound]
IC50 [3]: 9.23 ± 0.77 µM | IC50 [4]: 3.33 ± 0.38 µM

IC50 [1, 9]: 7000 µM
Compound: OCCc1ccccn1 [2-(HOCH2CH2)py, 2-(hydroxyethyl)pyridine, reference compound]

IC50 [1, 9]: 260 ± 30 µM | IC50 ([1]; Figure 10a and b50, unit inferred, read-out: IC50 (ABTS radical scavenging), unit inferred): 260 ± 30 µM | increase of CAT enzyme activity after addition of the mimetic (CAT): 0.18 U/mL | stability in buffer solution (PBS) [2]: confirmed the stability
Compound: [Cu(2-(HOCH2)py)3](ClO4)2 [complex 1]
IC50 [3]: 98.5 ± 2.7 µM | increase of total antioxidant status after addition of the mimetic [5]: 0.17 U/mL | solubility in water (solubility): soluble in water; also recorded: good solubility in water | IC50 [6]: 91.7 ± 2.9 µM | IC50 [7]: 94.7 ± 3.9 µM | SOD activity higher compared to the control group (SOD; post-chemoradiotherapy group with mimetic): 4.2 U/mL | SOD activity (SOD; post-chemotherapy group, complex 25 μg/mL of blood): 211.91 U/mL | lower cytotoxicity against normal cell line compared to cisplatin ([4]; BALB/3T3, versus cisplatin): about 30 times | IC50 [4]: 106 ± 4.2 µM

Compound: OC(O)(c1ccccn1)c1ccccn1.OC(O)(c1ccccn1)c1ccccn1.[Cu+2].[O-][Cl+3]([O-])([O-])[O-].[O-][Cl+3]([O-])([O-])[O-] [complex 5, [Cu(py2C(OH)2)2](ClO4)2]
IC50 [1, 9]: 24500 ± 500 µM | stability in buffer solution (PBS) [2]: confirmed the stability | solubility in water (solubility): soluble in water

Compound: O.O.OCc1ccccn1.OCc1ccccn1.OCc1ccccn1.OCc1ccccn1.[Cl-].[Cl-].[Cl-].[Cl-].[Mn+2].[Mn+2] [[Mn2(μ-Cl)2(2-CH2OHpy)4]Cl2·2H2O]
TOF (catalytic activity, H2O2 decomposition) [8]: 0.0187 min⁻¹
